Like-named read-outs stand apart in the source and are kept apart here.
Tests used:
[1] = tested on: H3K27Me3 methylation in Karpas-422 cells; assay: H3K27Me3 cell method, inhibition of H3K27Me3 methylation (Test Example 2); assay type: cell-based, human
Procedure: Karpas-422 (Nanjing Kebai, CBP60629) cells were seeded in a 96-well plate (Corning, 3894) at 15,000 cells per well in culture medium (80% 1640 (Hyclone, SH30809.01)+20% FBS (Corning, 35-081-CV)), and then added with different concentrations of compounds for treatment. The cell growth group without adding compounds is used as a positive control (maximum signal control), and the medium is used as a negative control (minimum signal control), while ensuring that in each reaction well, the final concentration of DMSO was 0.2%. Compounds and cells were incubated for 3 days in a cell culture incubator (37° C., 5% CO2). The 96-well plate was taken out from the cell culture incubator and equilibrated to room temperature, and 25 ul of cell suspension was taken out into a 384-well plate. The CCK8 (Beiyuntian, C0040) detection reagent was added, incubated at 37° C. for 1 h, and […] was detected. The rest of the cells followed the procedure of the kit EPIgeneous H3K27Me3 cellular kit (Cisbio, 62KC3PAE) to carry out experiment, read HTRF signal with BMG PHERAStar. […] By GraphPad Prism 6 with log(inhibitor)vs.response-Variable slope model simulation, the IC50 of the compound on cell activity inhibition was calculated. The fitting equation is: Y=Bottom+(Top−Bottom)/(1+10^((Log IC50−X)*HillSlope)), wherein Y represents the inhibition rate, and X represents the known concentration of the compound after Log.

[2] = tested on: Karpas-422 cells; assay: Anti-proliferation by Cell Titer-Glo method (Test Example 3); assay type: cell-based; settings: Homo sapiens; Karpas-422 cells, Cell-Titer Glo on the eleventh day; read-out: Test Example 3 Karpas-422 cell anti-proliferation IC50
Procedure: Karpas-422 (Nanjing Kebai, CBP60629) cells were seeded in a 96-well plate (Corning, 3894) at 1,000 cells per well in growth medium (80% 1640 (Hyclone, SH30809.01)+20% FBS (Corning, 35-081-CV)), in a total of 100 μL, and then was added with 25 μL of 5-fold different concentrations of compounds diluted in growth medium. The cell growth group without compound addition was used as a positive control (maximum signal control), and the medium was used as a negative control (minimum signal control), while ensuring that the final contration of DMSO in each reaction well was 0.2%. Then the 96-well cell plate was placed in a cell culture incubator (37° C., 5% CO2) and incubated for 3 days. On the fourth day, the cell culture plate was taken out of the incubator, using a row gun to gently blow the cells up and down to mix, removing 62.5 μL of the cell suspension, adding 50 μL of growth medium and 12.5 μL of compounds of 5 times different concentrations, and then putting them in the cell incubator to incubate for 4 days. On the eighth day, the same method was used as the fourth day to treat the cells, then incubating in the cell culture incubator for 3 days. On the eleventh day, the Cell-Titer Glo (Promega, G7573) was used to detect cell viability, and a microplate reader was used to detect the signal value of luminescence.
The inhibition rate of different concentrations of compounds on cells was calculated as inhibition rate=[1−(compound signal value−negative control signal value)/(positive control signal value-negative control signal value)][…]. The IC50 of the compound on cell activity inhibition was calculated by GraphPad Prism 6 with log(inhibitor) vs. response-Variable slope model fitting. The fitting equation is: Y=Bottom+(Top−Bottom)/(1+10^((Log IC50−X)*Hill Slope)), wherein Y represents the inhibition rate, and X represents the known concentration of the compound after Log.

[3] = biological target: T1, EZH2/SUZ/EED (Homo sapiens, UniProt O75530+Q15022+Q15910); assay: Inhibitory effect on EZH2 by the MTase-Glo method (Test Example 1); assay type: biochemical; settings: EZH2/SUZ/EED 6.25 nM, H3 peptide 10 μM, SAM 3 μM, 30° C. 3 h, read-out: Test Example 1 WT EZH2 IC50
T1 construct: purchased BPS 51003
T1 sequence (Q15910 2-746 limits assumed): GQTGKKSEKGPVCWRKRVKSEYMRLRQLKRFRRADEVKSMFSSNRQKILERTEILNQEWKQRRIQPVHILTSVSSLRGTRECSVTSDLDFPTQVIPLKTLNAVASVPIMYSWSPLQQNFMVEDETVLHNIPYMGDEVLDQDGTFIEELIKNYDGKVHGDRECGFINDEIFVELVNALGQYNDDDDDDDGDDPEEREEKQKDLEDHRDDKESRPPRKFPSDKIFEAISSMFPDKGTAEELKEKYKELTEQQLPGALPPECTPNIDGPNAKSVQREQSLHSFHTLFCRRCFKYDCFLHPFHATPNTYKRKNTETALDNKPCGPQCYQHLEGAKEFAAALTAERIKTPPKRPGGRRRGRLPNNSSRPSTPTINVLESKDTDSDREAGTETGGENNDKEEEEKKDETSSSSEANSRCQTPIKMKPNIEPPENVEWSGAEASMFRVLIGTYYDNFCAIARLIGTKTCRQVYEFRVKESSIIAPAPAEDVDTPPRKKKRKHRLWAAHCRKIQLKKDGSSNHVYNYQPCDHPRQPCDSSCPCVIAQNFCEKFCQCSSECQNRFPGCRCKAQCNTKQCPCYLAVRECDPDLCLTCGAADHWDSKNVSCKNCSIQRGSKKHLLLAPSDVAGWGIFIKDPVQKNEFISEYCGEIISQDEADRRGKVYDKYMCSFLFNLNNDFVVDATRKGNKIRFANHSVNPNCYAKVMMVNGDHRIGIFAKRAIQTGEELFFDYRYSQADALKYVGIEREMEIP
T1 sequence (Q15022 2-739 partner limits assumed): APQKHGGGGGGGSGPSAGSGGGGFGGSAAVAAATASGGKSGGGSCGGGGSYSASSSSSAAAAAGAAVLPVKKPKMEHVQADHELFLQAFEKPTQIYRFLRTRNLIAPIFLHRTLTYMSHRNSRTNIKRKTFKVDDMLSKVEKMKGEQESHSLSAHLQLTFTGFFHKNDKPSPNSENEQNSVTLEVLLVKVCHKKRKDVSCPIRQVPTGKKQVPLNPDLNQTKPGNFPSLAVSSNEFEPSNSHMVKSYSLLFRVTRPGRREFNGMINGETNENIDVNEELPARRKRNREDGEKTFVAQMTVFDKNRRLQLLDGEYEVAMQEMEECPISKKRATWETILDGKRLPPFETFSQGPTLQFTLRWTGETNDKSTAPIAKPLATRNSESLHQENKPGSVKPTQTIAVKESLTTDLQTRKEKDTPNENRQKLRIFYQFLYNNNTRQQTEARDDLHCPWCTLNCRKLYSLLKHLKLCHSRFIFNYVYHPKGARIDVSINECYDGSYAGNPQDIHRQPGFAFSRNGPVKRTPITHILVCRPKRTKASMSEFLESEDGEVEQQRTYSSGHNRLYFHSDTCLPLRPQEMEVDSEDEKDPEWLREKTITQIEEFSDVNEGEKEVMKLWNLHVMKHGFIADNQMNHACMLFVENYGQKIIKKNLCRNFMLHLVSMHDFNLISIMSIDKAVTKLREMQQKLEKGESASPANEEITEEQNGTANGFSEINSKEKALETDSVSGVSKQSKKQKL
T1 sequence (O75530 2-441 partner limits assumed): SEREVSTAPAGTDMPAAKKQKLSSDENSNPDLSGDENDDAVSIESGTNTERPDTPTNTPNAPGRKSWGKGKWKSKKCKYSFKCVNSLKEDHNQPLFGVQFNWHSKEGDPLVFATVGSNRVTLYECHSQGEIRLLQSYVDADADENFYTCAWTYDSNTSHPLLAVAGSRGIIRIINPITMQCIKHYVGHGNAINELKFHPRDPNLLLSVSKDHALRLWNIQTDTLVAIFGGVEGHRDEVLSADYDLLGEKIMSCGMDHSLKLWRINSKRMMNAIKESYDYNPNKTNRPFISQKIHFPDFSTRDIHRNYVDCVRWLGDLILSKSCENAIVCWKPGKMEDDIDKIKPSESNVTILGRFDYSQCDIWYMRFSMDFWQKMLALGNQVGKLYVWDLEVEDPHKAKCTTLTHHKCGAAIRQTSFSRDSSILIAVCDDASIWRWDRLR
Summary of the method: (§1)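 EZH2/SUZ/EED (6.25 nM) or EZH1/SUZ/EED (25 nM) pre-incubated 15 min with compound in pH 7.6 Bicine buffer, 0.5% DMSO. Biotinylated H3(21-44) peptide 10 μM plus SAM 3 μM reacted 3 h at 30 °C; MTase-Glo luminescence normalized to controls, IC50 from variable-slope fit.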

[4] = biological target: T2, EZH1/SUZ/EED (Homo sapiens, UniProt O75530+Q15022+Q92800); assay: Inhibitory effect on EZH1 by the MTase-Glo method (Test Example 1); assay type: biochemical; settings: EZH1/SUZ/EED 25 nM, H3 peptide 10 μM, SAM 3 μM, 30° C. 3 h, read-out: Test Example 1 WT EZH1 IC50
T2 construct: purchased BPS 51006
T2 sequence (Q92800 2-747 limits assumed): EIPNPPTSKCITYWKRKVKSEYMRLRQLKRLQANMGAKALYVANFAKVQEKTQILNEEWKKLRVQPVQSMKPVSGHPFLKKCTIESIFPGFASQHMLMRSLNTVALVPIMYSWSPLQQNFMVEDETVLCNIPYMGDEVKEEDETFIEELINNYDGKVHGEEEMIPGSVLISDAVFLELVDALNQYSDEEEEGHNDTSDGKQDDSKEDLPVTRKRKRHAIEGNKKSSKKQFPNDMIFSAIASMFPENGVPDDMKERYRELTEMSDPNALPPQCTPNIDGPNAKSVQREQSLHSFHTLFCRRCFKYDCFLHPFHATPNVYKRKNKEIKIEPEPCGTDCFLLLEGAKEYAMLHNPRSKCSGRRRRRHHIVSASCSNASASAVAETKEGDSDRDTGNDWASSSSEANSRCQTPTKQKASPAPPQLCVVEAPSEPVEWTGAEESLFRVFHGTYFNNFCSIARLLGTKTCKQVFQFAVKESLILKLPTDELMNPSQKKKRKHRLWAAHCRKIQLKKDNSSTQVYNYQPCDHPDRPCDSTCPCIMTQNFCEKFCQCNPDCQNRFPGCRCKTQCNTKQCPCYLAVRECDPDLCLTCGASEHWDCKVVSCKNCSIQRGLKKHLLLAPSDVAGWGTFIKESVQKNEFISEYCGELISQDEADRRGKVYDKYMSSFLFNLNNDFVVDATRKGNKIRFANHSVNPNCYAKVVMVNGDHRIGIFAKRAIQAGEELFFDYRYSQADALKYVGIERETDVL
T2 sequence (Q15022 2-739 partner limits assumed): as the sequence (Q15022 2-739 partner limits assumed) above
T2 sequence (O75530 2-441 partner limits assumed): as the sequence (O75530 2-441 partner limits assumed) above
Summary of the method: as §1

[5] = Homo sapiens, KARPAS-422, 72 h, Karpas-422 cells, 3 days incubation, HTRF signal, read-out: Test Example 2 H3K27Me3 inhibition (Karpas-422) IC50
[6] = Karpas-422 cells, 3 days incubation, HTRF signal, read-out: Test Example 2 H3K27Me3 inhibition (Karpas-422) IC50

SMILES | IC50 [1, 5] | IC50 [2] | IC50 [3] | IC50 [4] | IC50 [1, 6] | IC50 ([1]; Homo sapiens, KARPAS-422, 72 h, read-out: Test Example 2 H3K27Me3 inhibition (Karpas-422) IC50(nM))
COC1CN([C@H]2CC[C@H]([C@@H]3COc4c(F)cc(C(=O)NCc5c(SC)cc(C)[nH]c5=O)c(C)c4O3)CC2)C1 [Compound 171] | > 1000 nM | > 1000 nM | – | – | – | –
CSc1cc(C)[nH]c(=O)c1CNC(=O)c1cc(Cl)c2c(c1C)O[C@@H]([C@H]1CC[C@@H](NC3(CF)COC3)CC1)CO2 [Compound 36] | 11 nM | – | 2.4 nM | 9.7 nM | – | –
Cc1cc(C)c(CNC(=O)c2c(C)c3c(c(Cl)c2F)OC[C@H]([C@H]2CC[C@@H](N(C)C)CC2)O3)c(=O)[nH]1 [Compound 131] | 43.3 nM | – | 3.1 nM | 46.8 nM | – | –
COc1cc(C)[nH]c(=O)c1CNC(=O)c1cc(Cl)c2c(c1C)O[C@@H]([C@H]1CC[C@H](OCCF)CC1)CO2 [Compound 180] | – | 10.8 nM | – | – | – | –
Cc1cc(C)c(CNC(=O)c2cc(Cl)c3c(c2C)OC(C2CCC(N4CC(OC5CC5)C4)CC2)CO3)c(=O)[nH]1 (single isomer, unassigned) [Compound 77] | – | – | 27.3 nM | 142 nM | 260 nM | –
COCCN(C)[C@H]1CC[C@H]([C@H]2COc3c(Cl)cc(C(=O)NCc4c(SC)cc(C)[nH]c4=O)c(C)c3O2)CC1 [Compound 27] | 11.4 nM | – | 2.3 nM | 14.4 nM | – | –
COc1cc(C)[nH]c(=O)c1CNC(=O)c1cc(Cl)c2c(c1C)O[C@@H]([C@H]1CC[C@H](N3CC(OCCF)C3)CC1)CO2 [Compound 110] | 21.3 nM | – | 2.7 nM | 15.4 nM | – | –
COC1CN([C@H]2CC[C@@H]([C@@H]3COc4c(F)cc(C(=O)NCc5c(SC)cc(C)[nH]c5=O)c(C)c4O3)CC2)C1 [Compound 172] | – | 373 nM | – | – | – | –
CSc1cc(C)[nH]c(=O)c1CNC(=O)c1cc(Cl)c2c(c1C)O[C@@H](C1CCN(CC3CCC3)CC1)CO2 [Compound 25] | 17.3 nM | – | 1.6 nM | 8.3 nM | – | –
Cc1cc(C)c(CNC(=O)c2cc(Cl)c3c(c2Cl)OC[C@@H]([C@H]2CC[C@@H](N(C)C)CC2)O3)c(=O)[nH]1 [Compound 147] | – | – | 6.8 nM | 92 nM | – | 83 nM
CCS(=O)(=O)N1CCC([C@H]2COc3c(Cl)cc(C(=O)NCc4c(SC)cc(C)[nH]c4=O)c(C)c3O2)CC1 [Compound 38] | 11.5 nM | – | 2.3 nM | 4.7 nM | – | –
COc1cc(C)[nH]c(=O)c1CNC(=O)c1cc(Cl)c2c(c1C)O[C@@H]([C@H]1CC[C@@H](N3CC[C@@H](OC)C3)CC1)CO2 [Compound 121] | 92.3 nM | 35.8 nM | – | – | – | –
Cc1cc(C)c(CNC(=O)c2cc(Cl)c3c(c2C)OC(C2CCC(N4CC(F)(F)C4)CC2)CO3)c(=O)[nH]1 (single isomer, unassigned) [Compound 58] | – | – | 35.8 nM | 2300 nM | > 1000 nM | –
CSc1cc(C)[nH]c(=O)c1CNC(=O)c1cc(Cl)c2c(c1C)O[C@@H]([C@H]1CC[C@H](NC3(CF)COC3)CC1)CO2 [Compound 37] | 7 nM | – | 3.1 nM | 5.9 nM | – | –
Cc1cc(C)c(CNC(=O)c2cc(Cl)c3c(c2C)OC(C2CCC(N4CC(F)C4)CC2)CO3)c(=O)[nH]1 (single isomer, unassigned) [Compound 70] | 201 nM | – | 22.1 nM | 177 nM | – | –
CSc1cc(C)[nH]c(=O)c1CNC(=O)c1cc(C#N)c2c(c1C)O[C@@H]([C@H]1CC[C@@H](N3CC(OC(F)F)C3)CC1)CO2 [Compound 163] | 1.9 nM | 1.7 nM | 7.1 nM | – | – | –
Cc1cc(C)c(CNC(=O)c2cc(Cl)c3c(c2C)OC(C2CCC(N4CC(F)(F)C4)CC2)CO3)c(=O)[nH]1 (single isomer, unassigned) [Compound 57] | > 1000 nM | – | 21.7 nM | 260 nM | – | –

From patent US20260184697A1, “EZH1/2 INHIBITOR, PREPARATION THEREOF, AND USE THEREOF IN ANTI-TUMOR THERAPY” (JIANGSU TASLY DIYI PHARMACEUTICAL CO., LTD., priority 2022, published 2026)
